Test results: ChEMBL document CHEMBL5506003, “Design and biological evaluation of dual tubulin/HDAC inhibitors based on millepachine for treatment of prostate cancer” (Eur J Med Chem, 2024)
pIC50: −log10 of the molar value. Active and inactive are the calls of the source. The calls are words filed in the database; no cut-off is given here.

Experiments:
PC-3 [1] = assay: Induction of cell cycle arrest in human PC-3 cells assessed as G2/M phase cells at 0.08 uM incubated for 24 hrs by PI staining based flow cytometry analysis (reference value: 12.83%); assay type: functional
PC-3 [2] = assay: Induction of apoptosis in human PC-3 cells assessed as viable cells at 0.16 uM incubated for 24 hrs by Annexin V-FITC and PI staining based flow cytometry (reference value: 97.5%); assay type: functional; conditions: read-out: Activity
PC-3 [3] = assay: Induction of mitochondrial membrane potential loss in human PC-3 cells incubated for 24 hrs by JC-1 staining based flow cytometry analysis; assay type: functional, cell-based; conditions: dose 0.08-0.32 µM
PC-3 [4] = assay: Induction of cell cycle arrest in human PC-3 cells assessed as G1 phase cells at 0.08 uM incubated for 24 hrs by PI staining based flow cytometry analysis (reference value: 56.17%); assay type: functional
PC-3 [5] = assay: Induction of apoptosis in human PC-3 cells assessed as viable cells at 0.32 uM incubated for 24 hrs by Annexin V-FITC and PI staining based flow cytometry (reference value: 97.5%); assay type: functional; conditions: read-out: Activity
[6] = Volume of distribution at steady state in Sprague-Dawley rat at 2 mg/kg, iv measured upto 24 hrs by HPLC-MS analysis; assay type: ADME, organism-based; conditions: in vivo, read-out: Vdss
MDA-MB-231 = assay: Cytotoxicity against human MDA-MB-231 cells incubated for 72 hrs by MTT assay; assay type: functional, cell-based; conditions: MDA-MB-231, 72 h
PC-3 [7] = assay: Induction of apoptosis in human PC-3 cells assessed as early apoptotic cells at 0.32 uM incubated for 24 hrs by Annexin V-FITC and PI staining based flow cytometry (reference value: 1.32%); assay type: functional
[8] = molecular target: Histone deacetylase 3 (Homo sapiens) (UniProt O15379); assay: Inhibition of HDAC3 in human PC-3 cells assessed as increase in acetylated Histone-H3 level incubated for 24 hrs by Western blotting assay; assay type: cell-based; conditions: dose 0.08-0.32 µM
Histone deacetylase 3 (Homo sapiens), sequence (O15379 whole entry): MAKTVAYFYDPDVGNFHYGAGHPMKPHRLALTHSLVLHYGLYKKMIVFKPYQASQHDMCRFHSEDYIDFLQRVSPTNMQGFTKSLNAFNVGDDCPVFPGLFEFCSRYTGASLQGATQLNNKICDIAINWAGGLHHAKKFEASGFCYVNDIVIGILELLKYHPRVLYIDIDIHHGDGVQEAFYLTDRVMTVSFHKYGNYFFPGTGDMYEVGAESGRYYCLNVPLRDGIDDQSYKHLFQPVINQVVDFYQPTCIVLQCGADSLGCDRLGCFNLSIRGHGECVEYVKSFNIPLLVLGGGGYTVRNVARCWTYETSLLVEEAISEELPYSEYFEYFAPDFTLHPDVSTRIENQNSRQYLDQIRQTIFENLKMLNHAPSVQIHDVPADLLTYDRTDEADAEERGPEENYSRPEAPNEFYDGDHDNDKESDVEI

PC-3 [9] = assay: Antitumor activity against human PC-3 cells xenografted in iv dosed BALB/c nude mouse assessed as tumor growth inhibition administered every 2 days and measured after 3 weeks; assay type: functional, organism-based; conditions: dose 10-20 mg/kg
PC-3 [10] = assay: Induction of ROS generation in human PC-3 cells at 0.16 uM incubated for 24 hrs by DCFH-DA staining based flow cytometry analysis (reference value: 2.63%); assay type: functional
PC-3 [11] = assay: Induction of mitochondrial membrane potential loss in human PC-3 cells assessed as increase in monomer JC-1 level by measuring green fluorescence intensity at 0.16 uM incubated for 24 hrs by JC-1 staining based flow cytometry analysis (reference value: 6.44%); assay type: functional
HUVEC = assay: Anti-angiogenesis activity against HUVECs assessed as reduction in capillary like tubules at 0.1 to 1.6 uM incubated for 6 hrs by matrigel based microscopic analysis; assay type: functional, cell-based; conditions: Homo sapiens, dose 0.1-1.6 µM
PC-3 [12] = assay: Induction of apoptosis in human PC-3 cells assessed as necrotic cells at 0.16 uM incubated for 24 hrs by Annexin V-FITC and PI staining based flow cytometry (reference value: 0.13%); assay type: functional
Tubulin (Homo sapiens) [13] = molecular target: T1, Tubulin (Homo sapiens) (UniProt P68371+Q9H4B7+P0DPH7+P68366+Q13509+Q71U36+P04350+Q3ZCM7+P07437+P68363+Q9BQE3+Q6PEY2+Q13885+Q9BVA1+Q9BUF5); assay: Binding affinity to tubulin colchicine binding site in human PC-3 cells assessed as reduction in beta-tubulin adduct formation at 5 uM preincubated for 2 hrs followed by EBI addition and measured after 1.5 hrs by Western blotting assay; assay type: cell-based; parameters: scale not given: the % may be the effect or the level left; conditions: time 3.5 hrs
PC-3 [14] = assay: Induction of cell cycle arrest in human PC-3 cells assessed as S phase cells at 0.16 uM incubated for 24 hrs by PI staining based flow cytometry analysis (reference value: 31.7%); assay type: functional
Tubulin (Homo sapiens) [15] = molecular target: T1, Tubulin (Homo sapiens); assay: Inhibition of microtubule polymerization in human PC-3 cells assessed as disorganized microtubule filaments at 0.32 uM incubated for 6 hrs by immunofluorescent staining based confocal microscopy assay; assay type: cell-based
[16] = Half-life in Sprague-Dawley rat at 2 mg/kg, iv measured upto 24 hrs by HPLC-MS analysis; assay type: ADME, organism-based; conditions: in vivo
PC-3 [17] = assay: Induction of ROS generation in human PC-3 cells at 0.32 uM incubated for 24 hrs by DCFH-DA staining based flow cytometry analysis (reference value: 2.63%); assay type: functional
PC-3 [18] = assay: Induction of apoptosis in human PC-3 cells assessed as downregulation of Bim expression at 0.08 to 0.32 uM by Western blotting analysis; assay type: functional, cell-based; conditions: dose 0.08-0.32 µM
PC-3 [19] = assay: Induction of mitochondrial membrane potential loss in human PC-3 cells assessed as increase in monomer JC-1 level by measuring green fluorescence intensity at 0.08 uM incubated for 24 hrs by JC-1 staining based flow cytometry analysis (reference value: 6.44%); assay type: functional
PC-3 [20] = assay: Induction of ROS generation in human PC-3 cells at 0.08 uM incubated for 24 hrs by DCFH-DA staining based flow cytometry analysis (reference value: 2.63%); assay type: functional
PC-3 [21] = assay: Induction of cell cycle arrest in human PC-3 cells assessed as S phase cells at 0.08 uM incubated for 24 hrs by PI staining based flow cytometry analysis (reference value: 31.7%); assay type: functional
A549 = assay: Inhibition of cell migration in human A549 cells incubated for 24 hrs by scratch wound healing method; assay type: functional, cell-based; conditions: dose 0.4-1.6 µM
PC-3 [22] = assay: Induction of apoptosis in human PC-3 cells assessed as early apoptotic cells at 0.08 uM incubated for 24 hrs by Annexin V-FITC and PI staining based flow cytometry (reference value: 1.32%); assay type: functional
PC-3 [23] = assay: Induction of mitochondrial membrane potential loss in human PC-3 cells assessed as decrease in JC-1 aggregate level by measuring red fluorescence intensity at 0.16 uM incubated for 24 hrs by JC-1 staining based flow cytometry analysis (reference value: 93.5%); assay type: functional; parameters: scale not given: the % may be the effect or the level left
PC-3 [24] = assay: Antitumor activity against human PC-3 cells xenografted in BALB/c nude mouse assessed as tumor growth inhibition at 20 mg/kg, iv administered every 2 days and measured after 3 weeks; assay type: functional; conditions: PC-3, 48 h, time 2 day, read-out: TGI
Tubulin (Homo sapiens) [25] = molecular target: T1, Tubulin (Homo sapiens); assay: Inhibition of microtubule polymerization in human PC-3 cells assessed as fragmented microtubule filaments at 0.32 uM incubated for 6 hrs by immunofluorescent staining based confocal microscopy assay; assay type: cell-based
PC-3 [26] = assay: Induction of cell cycle arrest in human PC-3 cells assessed as G1 phase cells at 0.16 uM incubated for 24 hrs by PI staining based flow cytometry analysis (reference value: 56.17%); assay type: functional
PC-3 [27] = assay: Induction of cell cycle arrest in human PC-3 cells assessed as S phase cells at 0.32 uM incubated for 24 hrs by PI staining based flow cytometry analysis (reference value: 31.7%); assay type: functional
PC-3 [28] = assay: Induction of cell cycle arrest in human PC-3 cells assessed as G2/M phase cells at 0.16 uM incubated for 24 hrs by PI staining based flow cytometry analysis (reference value: 12.83%); assay type: functional
PC-3 [29] = assay: Induction of apoptosis in human PC-3 cells assessed as necrotic cells at 0.32 uM incubated for 24 hrs by Annexin V-FITC and PI staining based flow cytometry (reference value: 0.13%); assay type: functional
MCF7 = assay: Cytotoxicity against human MCF7 cells incubated for 72 hrs by MTT assay; conditions: MCF7, 72 h

For `COc1ccc(/C=C/C(=O)c2ccc(OC)c3c2OC(C)(C)C=C3)cc1NCC(=O)NO`, the Activity (PC-3 [1]) was 25.45%, the viability at 0.16 µM (PC-3 [2]) was 78.8% and the Activity (PC-3 [3]) was “Dose-Dependent Effect”. The Activity (PC-3 [4]) was 34.64%, the viability at 0.32 µM (PC-3 [5]) was 27.6% and the Vd [6] was 0.42 L/kg. The pIC50 (MDA-MB-231) was 6.47, the Activity (PC-3 [7]) was 63.8% and the inhibition [8] was “Dose-Dependent Effect”. For the same molecule, the Activity (PC-3 [9]) was “Dose-Dependent Effect”, the Activity (PC-3 [10]) was 75.4% and the Activity (PC-3 [11]) was 20.7%. For the same molecule, the Activity (HUVEC) was “Active”, the Activity (PC-3 [12]) was 0.47% and the Activity (Tubulin (Homo sapiens) [13]) was 100%. For the same molecule, the Activity (PC-3 [14]) was 28.7%, the inhibition (Tubulin (Homo sapiens) [15]) was “Active” and the half-life [16] was 54.6 min. For the same molecule, the Activity (PC-3 [17]) was 83.1%, the Activity (PC-3 [18]) was “Active” and the Activity (PC-3 [19]) was 10.6%. The Activity (PC-3 [20]) was 45.7%, the Activity (PC-3 [21]) was 39.9% and the inhibition (A549) was “Dose-Dependent Effect”. It also gave an Activity (PC-3 [22]) of 2.52%, an Activity (PC-3 [23]) of 77.9% and an inhibition in vivo at 20 mg/kg (PC-3 [24]) of 90.1%. The inhibition (Tubulin (Homo sapiens) [25]) was “Active”, the Activity (PC-3 [26]) was 18.7% and the Activity (PC-3 [27]) was 10.6%. For the same molecule, the Activity (PC-3 [28]) was 50.56%, the Activity (PC-3 [29]) was 0.19% and the pIC50 (MCF7) was 6.80.
